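48-hour exposure; five concentrations; linearly interpolated endpoints. GI50 marks 50% less growth.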 Calls of active or inactive are those of the source. No stated cut-off is given here; in the data, active = GI50 up to about 1.1 µM and inactive = higher.
What was measured:
Test in all cases: NCI tumour cell line growth inhibition, 48 h
RPMI-8226 = test system: RPMI-8226
SW-620 = test system: SW-620
CCRF-CEM = test system: CCRF-CEM
OVCAR-8 = test system: OVCAR-8
SNB-78 = test system: SNB-78
CAKI-1 = test system: CAKI-1
DMS-114 = test system: DMS-114
HOP-62 = test system: HOP-62
SF-295 = test system: SF-295
SK-MEL-2 = test system: SK-MEL-2
KM12 = test system: KM12
NCI-H226 = test system: NCI-H226
UO-31 = test system: UO-31
M14 = test system: M14
SNB-19 = test system: SNB-19
HT-29 = test system: HT-29
HCT-116 = test system: HCT-116
786-0 = test system: 786-0
HOP-18 = test system: HOP-18
OVCAR-4 = test system: OVCAR-4
Malme-3M = test system: Malme-3M
M19-MEL = test system: M19-MEL
UACC-62 = test system: UACC-62
EKVX = test system: EKVX
MOLT-4 = test system: MOLT-4
SF-539 = test system: SF-539
IGROV-1 = test system: IGROV-1
OVCAR-3 = test system: OVCAR-3
DLD-1 = test system: DLD-1
COLO 205 = test system: COLO 205
SK-MEL-5 = test system: SK-MEL-5
TK-10 = test system: TK-10
HL-60 = test system: HL-60
K562 = test system: K562
SK-OV-3 = test system: SK-OV-3
HOP-92 = test system: HOP-92
UACC-257 = test system: UACC-257
HCC 2998 = test system: HCC 2998
A549 = test system: A549
LXFL 529 = test system: LXFL 529
KM-20L2 = test system: KM-20L2
NCI-H460 = test system: NCI-H460
LOX IMVI = test system: LOX IMVI
U-251 = test system: U-251
RXF 393 = test system: RXF 393
NCI-H522 = test system: NCI-H522
SK-MEL-28 = test system: SK-MEL-28
SNB-75 = test system: SNB-75
NCI-H23 = test system: NCI-H23
XF498 = test system: XF498
SN12C = test system: SN12C
DMS-273 = test system: DMS-273
ACHN = test system: ACHN
SR = test system: SR
SF-268 = test system: SF-268
A498 = test system: A498
OVCAR-5 = test system: OVCAR-5

Measured: GI50

CSc1nc(NC2OC(COC(C)=O)C(OC(C)=O)C(OC(C)=O)C2OC(C)=O)c(/N=C(\C)C(C)=O)c(=O)n1C (configuration not stated)
inactive: RPMI-8226 > 100 µM | SW-620 > 100 µM | CCRF-CEM > 100 µM | OVCAR-8 > 100 µM | SNB-78 > 100 µM | CAKI-1 > 100 µM | DMS-114 > 100 µM | HOP-62 > 100 µM | SF-295 > 100 µM | SK-MEL-2 > 100 µM | KM12 > 100 µM | NCI-H226 > 100 µM | UO-31 > 100 µM | M14 > 100 µM | SNB-19 > 100 µM | HT-29 > 100 µM | HCT-116 > 100 µM | 786-0 > 100 µM | HOP-18 > 100 µM | OVCAR-4 > 100 µM | Malme-3M > 100 µM | M19-MEL > 100 µM | UACC-62 > 100 µM | EKVX > 100 µM | MOLT-4 > 100 µM | SF-539 > 100 µM | IGROV-1 > 100 µM | OVCAR-3 > 100 µM | DLD-1 > 100 µM | COLO 205 > 100 µM | SK-MEL-5 > 100 µM | TK-10 > 100 µM | HL-60 > 100 µM | K562 > 100 µM | SK-OV-3 > 100 µM | HOP-92 > 100 µM | UACC-257 > 100 µM | HCC 2998 > 100 µM | A549 > 100 µM | LXFL 529 > 100 µM

O=c1oc(-c2ccccc2)cn1-c1ccccc1
inactive: RPMI-8226 > 100 µM | KM-20L2 94.8 µM | NCI-H460 > 100 µM | CCRF-CEM > 100 µM | LOX IMVI 94.8 µM | SNB-78 > 100 µM | U-251 > 100 µM | RXF 393 > 100 µM | HOP-62 > 100 µM | NCI-H522 70.8 µM | NCI-H226 > 100 µM | SK-MEL-28 > 100 µM | M14 > 100 µM | SNB-19 > 100 µM | HCT-116 > 100 µM | 786-0 > 100 µM | HOP-18 95.3 µM | SNB-75 > 100 µM | OVCAR-4 > 10 µM | NCI-H23 > 100 µM | XF498 > 100 µM | SN12C > 100 µM | MOLT-4 > 100 µM | SF-539 88.7 µM | DLD-1 > 100 µM | HL-60 > 100 µM | K562 > 100 µM | DMS-273 > 100 µM | HCC 2998 > 100 µM | LXFL 529 > 100 µM

CN(C(=O)C12C3C4C1C1C2C3C41C(N)=O)C(C)(C)C (configuration not stated)
inactive: SW-620 > 100 µM | ACHN > 100 µM | NCI-H460 > 100 µM | CCRF-CEM > 100 µM | OVCAR-8 > 100 µM | SNB-78 > 100 µM | CAKI-1 > 100 µM | DMS-114 > 100 µM | SR > 100 µM | SF-295 > 100 µM | NCI-H522 > 100 µM | KM12 > 100 µM | NCI-H226 > 100 µM | SK-MEL-28 > 100 µM | UO-31 > 100 µM | M14 > 100 µM | SF-268 > 100 µM | SNB-19 > 100 µM | HT-29 > 100 µM | A498 > 100 µM | HCT-116 > 100 µM | 786-0 > 100 µM | SNB-75 > 100 µM | OVCAR-4 > 100 µM | Malme-3M > 100 µM | NCI-H23 > 100 µM | M19-MEL > 100 µM | UACC-62 > 100 µM | XF498 > 100 µM | EKVX > 100 µM | OVCAR-5 > 100 µM | SN12C > 100 µM | MOLT-4 > 100 µM | SF-539 > 100 µM | IGROV-1 > 100 µM | OVCAR-3 > 100 µM | COLO 205 > 100 µM | SK-MEL-5 > 100 µM | TK-10 > 100 µM | HL-60 > 100 µM | K562 > 100 µM | SK-OV-3 > 100 µM | HOP-92 > 100 µM | DMS-273 > 100 µM | HCC 2998 > 100 µM | A549 > 100 µM | LXFL 529 > 100 µM

Reference: ChEMBL document CHEMBL1201862, “PubChem BioAssay data set” (2004)
